Measured values as given in paper PMC6287599, “2,6-Bis(2-Benzimidazolyl)Pyridine (BBP) Is a Potent and Selective Inhibitor of Small Conductance Calcium-Activated Potassium (SK) Channels” (Frontiers in Pharmacology, 2018).

What was measured:
Type in all cases: cell-based
hSK3 = hSK3 (Homo sapiens, UniProt Q9UGI6); test: Automated patch clamp (QPatch 16), whole cell, stable HEK293 cell line expressing hSK3; settings: HEK stable line, 400 nM free intracellular calcium, mean ± SEM, n = 9
Experimental: (§1) Three different stable HEK293 cell lines expressing hSK1, hSK2 or hSK3 (NeuroSearch A/S, Ballerup, Denmark) and a CHO stable cell line expressing hERG (University of Copenhagen, Copenhagen, Denmark) were used for automated patch clamp. These cells were cultivated and prepared as previously described (Skarsfeldt et al., [2016]).
(§2) Automated patch clamp (QPatch 16, Sophion, Denmark) on SK-expressing HEK293 cell lines was conducted as previously described (Simó-Vicens et al., [2017b]). Briefly, SK currents were elicited by voltage-ramps starting at −80 mV and finishing at +80 mV from a holding potential of 0 mV. Extracellular solution contained 0.1 mM CaCl2, 3 mM MgCl2, 154 mM KCl, 10 mM HEPES and 10 mM glucose with pH 7.4. Intracellular solution for SK experiments contained 8.106 mM CaCl2 (final free calcium concentration of 400 nM), 1.167 mM MgCl2, 10 mM EGTA, 154 mM KCl, 10 mM HEPES, 31.25/ 10 mM KOH/EGTA and 15 mM KOH with pH 7.2. Automated patch clamp on hERG-expressing CHO cell line was performed also as previously described (Skarsfeldt et al., [2016]).
Individual IC50 values were calculated for each cell with the built-in nonlinear fit log(inhibitor) vs. normalized response equation:
Where Y is the normalized response, from 100, corresponding to current recorded during saline perfusion, down to 0, corresponding to currents recorded in the presence of bicuculline methiodide 100 μM. […]

hBK = target: T1, hBK (Homo sapiens, UniProt Q12791); test: Manual whole cell patch clamp, HEK293 transiently transfected with hBK; settings: BBP 1 μM, manual patch clamp, 100 nM free intracellular calcium, n = 8
T1 construct: expressed in transfected cells; host or cells: HEK293 (transient, co-transfected with eGFP)
Experimental: HEK293 cells were transiently co-transfected with the plasmid of interest (hBK, hSK1, hSK2, hSK3 WT, rSK3 H491N, or hIK) and eGFP using standard Lipofectamine™ 2000 (Thermo Fisher Scientific, Waltham, Massachussets, USA) transfection protocols. After transfection, cells were incubated overnight before the experiments.
Manual patch clamp experiments were performed at room temperature in the whole cell configuration with a HEKA EPC9 amplifier and the Patchmaster software (HEKA Elektronik, Ludwigshafen, Germany). All currents were elicited every 2 s using an incremental 200 ms voltage-ramp protocol starting at −80 mV and finishing at +80 mV from a holding potential of 0 mV. […]
(§3) To assess the effect of BBP on other calcium-activated potassium channels (hBK, hSK3 WT, rSK3 H491N, and hIK), each individual current was first normalized to its cell size using membrane's capacitance (pA/pF) before statistical analysis. […] Statistical significance between saline and the effect of both BBP and the corresponding reference compound was determined for each channel using one-way ANOVA analysis. […]
After testing BBP on the three SK channel subtypes, we decided to explore whether other calcium-activated potassium channels were affected by the compound. […] Finally, a positive control was used to inhibit the remaining current and quantify the total effect of BBP. […]

[1] = target: hERG channel (against SK channel subtypes hSK1, hSK2, hSK3) (Homo sapiens, UniProt Q12809); test: Automated patch clamp, stable CHO cell line expressing hERG; settings: human, CHO cells stably expressing hERG
Experimental: as §1
as §2, with “Automated patch clamp on hERG-expressing CHO cell line was performed also as previously described (Skarsfeldt et al., [2016]).” left out
as §3

Sequence of hERG channel (against SK channel subtypes hSK1, hSK2, hSK3) (Q12809 whole entry): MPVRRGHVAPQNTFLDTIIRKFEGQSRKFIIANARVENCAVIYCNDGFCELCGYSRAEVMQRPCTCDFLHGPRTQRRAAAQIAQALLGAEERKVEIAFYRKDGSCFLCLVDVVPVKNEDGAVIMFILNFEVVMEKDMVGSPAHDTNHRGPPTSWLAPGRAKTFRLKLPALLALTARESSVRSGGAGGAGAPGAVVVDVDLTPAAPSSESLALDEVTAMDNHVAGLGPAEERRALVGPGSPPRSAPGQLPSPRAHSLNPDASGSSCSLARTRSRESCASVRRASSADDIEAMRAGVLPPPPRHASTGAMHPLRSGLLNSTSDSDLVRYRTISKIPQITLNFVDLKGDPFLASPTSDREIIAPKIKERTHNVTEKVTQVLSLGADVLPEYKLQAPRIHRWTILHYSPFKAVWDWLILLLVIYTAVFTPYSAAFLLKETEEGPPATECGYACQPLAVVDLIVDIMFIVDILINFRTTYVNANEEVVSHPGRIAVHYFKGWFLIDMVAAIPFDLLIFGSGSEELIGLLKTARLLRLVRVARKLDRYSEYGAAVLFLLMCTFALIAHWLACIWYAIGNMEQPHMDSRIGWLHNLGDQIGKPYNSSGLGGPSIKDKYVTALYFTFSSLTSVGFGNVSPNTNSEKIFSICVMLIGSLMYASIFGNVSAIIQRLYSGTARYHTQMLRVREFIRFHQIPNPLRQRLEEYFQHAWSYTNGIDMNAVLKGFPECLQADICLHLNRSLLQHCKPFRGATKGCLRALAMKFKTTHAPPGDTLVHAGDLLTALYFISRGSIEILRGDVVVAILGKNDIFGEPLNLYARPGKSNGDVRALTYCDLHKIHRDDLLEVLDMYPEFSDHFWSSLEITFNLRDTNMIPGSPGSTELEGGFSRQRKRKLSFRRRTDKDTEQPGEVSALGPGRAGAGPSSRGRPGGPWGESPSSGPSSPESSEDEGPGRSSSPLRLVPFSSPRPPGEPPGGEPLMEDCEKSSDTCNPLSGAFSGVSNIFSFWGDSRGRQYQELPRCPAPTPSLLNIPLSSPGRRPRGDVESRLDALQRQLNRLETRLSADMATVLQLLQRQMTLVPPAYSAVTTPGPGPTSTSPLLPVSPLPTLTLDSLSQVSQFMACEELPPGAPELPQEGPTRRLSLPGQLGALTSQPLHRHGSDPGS
T1 sequence (Q12791 whole entry): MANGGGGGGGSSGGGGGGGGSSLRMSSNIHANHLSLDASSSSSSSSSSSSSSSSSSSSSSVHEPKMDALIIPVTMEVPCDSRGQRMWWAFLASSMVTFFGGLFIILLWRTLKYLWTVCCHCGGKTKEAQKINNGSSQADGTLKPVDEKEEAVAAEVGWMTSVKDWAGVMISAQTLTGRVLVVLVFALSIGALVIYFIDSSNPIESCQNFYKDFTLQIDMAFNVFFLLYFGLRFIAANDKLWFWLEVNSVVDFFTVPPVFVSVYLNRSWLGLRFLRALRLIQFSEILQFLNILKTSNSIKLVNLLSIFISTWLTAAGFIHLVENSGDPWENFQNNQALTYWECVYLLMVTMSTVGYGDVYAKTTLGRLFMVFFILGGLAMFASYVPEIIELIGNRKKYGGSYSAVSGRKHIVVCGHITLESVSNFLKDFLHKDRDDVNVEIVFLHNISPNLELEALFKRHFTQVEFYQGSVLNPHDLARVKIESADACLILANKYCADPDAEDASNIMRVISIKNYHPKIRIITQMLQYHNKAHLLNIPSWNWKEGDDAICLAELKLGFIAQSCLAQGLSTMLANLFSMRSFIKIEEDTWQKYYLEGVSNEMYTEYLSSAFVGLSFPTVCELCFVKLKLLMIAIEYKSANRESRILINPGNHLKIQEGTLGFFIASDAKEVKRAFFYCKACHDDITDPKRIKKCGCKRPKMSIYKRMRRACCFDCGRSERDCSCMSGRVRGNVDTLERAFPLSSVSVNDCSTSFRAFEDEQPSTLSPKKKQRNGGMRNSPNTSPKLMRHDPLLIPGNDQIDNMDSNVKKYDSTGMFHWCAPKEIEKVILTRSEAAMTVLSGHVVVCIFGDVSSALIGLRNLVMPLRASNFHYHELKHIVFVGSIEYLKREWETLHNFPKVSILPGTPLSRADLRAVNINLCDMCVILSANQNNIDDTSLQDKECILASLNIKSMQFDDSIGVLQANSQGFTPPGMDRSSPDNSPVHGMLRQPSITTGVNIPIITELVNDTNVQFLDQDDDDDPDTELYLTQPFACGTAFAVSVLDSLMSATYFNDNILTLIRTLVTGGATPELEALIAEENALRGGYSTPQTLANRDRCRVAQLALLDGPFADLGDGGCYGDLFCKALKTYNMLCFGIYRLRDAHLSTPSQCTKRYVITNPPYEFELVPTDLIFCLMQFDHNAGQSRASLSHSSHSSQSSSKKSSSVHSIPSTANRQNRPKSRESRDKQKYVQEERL

c1cc(-c2nc3ccccc3[nH]2)nc(-c2nc3ccccc3[nH]2)c1 [BBP, 2,6-Bis(2-benzimidazolyl)pyridine]
IC50 (hSK3): 400 ± 200 nM | Reduction of hBK current (hBK): 19 ± 6% | selectivity ratio [1]: 46
